# From PubChem BioAssay AID212 (DTP/NCI, 2004)
# Where “and” joins values, the source holds several entries; their conditions need not be identical. Equal entries are not always repeated. Inconclusive results are not listed.
# Tested on: BDF1 mice, colon carcinoma 38 sc, T/C %
# Assay: NCI In Vivo Anticancer Drug Screen. Data for tumor model Colon Carcinoma 38 (subcutaneous) in B6D2F1 (BDF1) mice
# Details: endpoint: median tumor weight (est.), higher = larger tumour
# Method: The antitumor activity of compounds was measured in mice bearing transplantable tumors. Survival or tumor size were measured and the results are expressed as the measurement made in the treated group (T) divided by the measurement made in the vehicle treated control group (C). The tumor model used in this assay is Colon Carcinoma 38 (subcutaneous) in B6D2F1 (BDF1) mice
# [1] = dose: 12.5 mg/kg/injection, schedule: Q07DX002 (ip), vehicle: saline with Tween-80
# [2] = dose: 50.0 mg/kg/injection, schedule: Q07DX002 (ip), vehicle: saline with Tween-80
# [3] = dose: 400.0 mg/kg/injection, schedule: Q07DX002 (ip), vehicle: saline with Tween-80
# [4] = dose: 100.0 mg/kg/injection, schedule: Q07DX002 (ip), vehicle: saline with Tween-80
# [5] = dose: 3.12 mg/kg/injection, schedule: Q07DX002 (ip), vehicle: saline with Tween-80
# [6] = dose: 6.25 mg/kg/injection, schedule: Q07DX002 (ip), vehicle: saline with Tween-80
# [7] = dose: 400.0 mg/kg/injection, schedule: Q07DX002 (ip), vehicle: saline
# [8] = dose: 200.0 mg/kg/injection, schedule: Q07DX002 (ip), vehicle: saline with Tween-80
# [9] = dose: 25.0 mg/kg/injection, schedule: Q07DX002 (ip), vehicle: saline
# [10] = dose: 200.0 mg/kg/injection, schedule: Q07DX002 (ip), vehicle: saline
smiles,measurement,setting,value
C=C(OC1C(C)=C2C(C1OC(=O)CCCCCCC)C(C)(OC(C)=O)CC(OC(=O)CCC)C1(O)C2OC(=O)C1(C)O)/C(C)=C/C (stereo not given),T/C,"dose: 0.21 mg/kg/injection, schedule: Q07DX002 (ip), vehicle: Klucel (hydroxypropylcellulose) (HPC)",35 % of control
same,T/C,"dose: 0.84 mg/kg/injection, schedule: Q07DX002 (ip), vehicle: Klucel (hydroxypropylcellulose) (HPC)",82 % of control and 86 % of control and 92 % of control
CC(=O)C1=C(O)C2(O)C(=O)c3c(c(C)c4ccc(C)c(O)c4c3O)CC2C(N)C1=O (stereo not given),T/C,"dose: 7.5 mg/kg/injection, schedule: Q07DX002 (ip), vehicle: saline + alcohol",79 % of control and 95 % of control
same,T/C,"dose: 15.0 mg/kg/injection, schedule: Q07DX002 (ip), vehicle: saline + alcohol",87 % of control and 106 % of control
same,T/C,"dose: 60.0 mg/kg/injection, schedule: Q07DX002 (ip), vehicle: saline + alcohol",95 % of control and 107 % of control
same,T/C,"dose: 120.0 mg/kg/injection, schedule: Q07DX002 (ip), vehicle: saline + alcohol",87 % of control
CCC1CN2C(=N1)c1ccccc1-c1cc(Cl)ccc12 (stereo not given),T/C,"dose: 3.13 mg/kg/injection, schedule: Q07DX003 (ip), vehicle: suspension in saline",83 % of control
same,T/C,"dose: 6.25 mg/kg/injection, schedule: Q07DX003 (ip), vehicle: suspension in saline",93 % of control
same,T/C,"dose: 12.5 mg/kg/injection, schedule: Q07DX003 (ip), vehicle: suspension in saline",118 % of control
CCOC(=O)C1(c2ccccc2)C(=O)Oc2ccccc21 (stereo not given),T/C,[1],94 % of control
same,T/C,"dose: 25.0 mg/kg/injection, schedule: Q07DX002 (ip), vehicle: saline with Tween-80",112 % of control and 87 % of control
same,T/C,[2],61 % of control
same,T/C,[3],107 % of control
Nc1nc(N)c2c(Cl)c(CNc3ccc(Cl)c(Cl)c3)ccc2n1,T/C,[1],73 % of control and 82 % of control and 88 % of control
same,T/C,[4],5 % of control and 19 % of control
C=CC(=O)N1CN(C(=O)C=C)CN(C(=O)C=C)C1,T/C,"dose: 1.56 mg/kg/injection, schedule: Q07DX002 (ip), vehicle: saline with Tween-80",82 % of control
same,T/C,"dose: 1.56 mg/kg/injection, schedule: Q07DX002 (ip), vehicle: saline",74 % of control
same,T/C,[5],85 % of control
same,T/C,"dose: 3.12 mg/kg/injection, schedule: Q07DX002 (ip), vehicle: saline",110 % of control
same,T/C,[6],104 % of control
same,T/C,"dose: 6.25 mg/kg/injection, schedule: Q07DX002 (ip), vehicle: saline",90 % of control
same,T/C,[1],120 % of control
CNC(=O)OCc1c(COC(=O)NC)c(-c2ccc(Cl)c(Cl)c2)n2c1Cc1ccccc1C2,T/C,"dose: 50.0 mg/kg/injection, schedule: Q07DX002 (ip), vehicle: distilled water + Tween-80",86 % of control
same,T/C,"dose: 100.0 mg/kg/injection, schedule: Q07DX002 (ip), vehicle: distilled water + Tween-80",81 % of control
same,T/C,"dose: 200.0 mg/kg/injection, schedule: Q07DX002 (ip), vehicle: distilled water + Tween-80",65 % of control
OCC1(CO)COC2(CCCCC2)N1,T/C,"dose: 100.0 mg/kg/injection, schedule: Q07DX002 (ip), vehicle: saline",118 % of control and 102 % of control
same,T/C,[7],112 % of control and 122 % of control
CCCCCCCCCCCCCCCCCC(=O)Nc1ccn(C2OC(CO)C(O)C2O)c(=O)n1 (stereo not given),T/C,[1],99 % of control
same,T/C,[2],35 % of control and 59 % of control
same,T/C,[4],25 % of control
same,T/C,[8],4 % of control
CN1CCN(Cc2nc3cccc4c3c([n+]2[O-])-c2ccccc2-4)CC1,T/C,[5],72 % of control
same,T/C,[6],58 % of control
same,T/C,[1],81 % of control and 98 % of control and 106 % of control
same,T/C,[8],65 % of control and 75 % of control
same,T/C,[3],79 % of control
NC(=O)CC(N)C(=O)O (stereo not given),T/C,"dose: 50.0 mg/kg/injection, schedule: Q07DX002 (ip), vehicle: other",72 % of control
same,T/C,"dose: 100.0 mg/kg/injection, schedule: Q07DX002 (ip), vehicle: other",85 % of control
same,T/C,"dose: 200.0 mg/kg/injection, schedule: Q07DX002 (ip), vehicle: other",79 % of control
same,T/C,"dose: 400.0 mg/kg/injection, schedule: Q07DX002 (ip), vehicle: other",91 % of control
same,T/C,"dose: 800.0 mg/kg/injection, schedule: Q07DX002 (ip), vehicle: other",118 % of control
same,T/C,"dose: 1600.0 mg/kg/injection, schedule: Q07DX002 (ip), vehicle: other",88 % of control
CC(=S)NC(O)C(=O)c1ccccc1 (stereo not given),T/C,[2],71 % of control and 82 % of control
same,T/C,[4],77 % of control and 99 % of control
same,T/C,[8],98 % of control and 103 % of control
same,T/C,[3],115 % of control
CC(=O)OCC1OC(n2ncc(=O)[nH]c2=O)C(OC(C)=O)C1OC(C)=O (stereo not given),T/C,"dose: 50.0 mg/kg/injection, schedule: Q07DX002 (ip), vehicle: suspension in saline",100 % of control
same,T/C,"dose: 100.0 mg/kg/injection, schedule: Q07DX002 (ip), vehicle: suspension in saline",95 % of control
same,T/C,"dose: 200.0 mg/kg/injection, schedule: Q07DX002 (ip), vehicle: suspension in saline",52 % of control
same,T/C,"dose: 400.0 mg/kg/injection, schedule: Q07DX002 (ip), vehicle: suspension in saline",66 % of control
same,T/C,"dose: 800.0 mg/kg/injection, schedule: Q07DX002 (ip), vehicle: suspension in saline",64 % of control
C=C1CC2(OC1=O)C(=O)N(C)c1ccc(I)cc12 (stereo not given),T/C,"dose: 1.81 mg/kg/injection, schedule: Q07DX002 (ip), vehicle: suspension in saline",69 % of control
same,T/C,"dose: 3.62 mg/kg/injection, schedule: Q07DX002 (ip), vehicle: suspension in saline",114 % of control
same,T/C,"dose: 7.25 mg/kg/injection, schedule: Q07DX002 (ip), vehicle: suspension in saline",120 % of control
same,T/C,"dose: 14.5 mg/kg/injection, schedule: Q07DX002 (ip), vehicle: suspension in saline",63 % of control
same,T/C,[9],93 % of control
same,T/C,"dose: 29.0 mg/kg/injection, schedule: Q07DX002 (ip), vehicle: suspension in saline",107 % of control
same,T/C,"dose: 58.0 mg/kg/injection, schedule: Q07DX002 (ip), vehicle: suspension in saline",111 % of control
same,T/C,[10],89 % of control
same,T/C,[7],108 % of control and 121 % of control
COC(=O)c1ccoc1,T/C,[9],105 % of control
same,T/C,"dose: 50.0 mg/kg/injection, schedule: Q07DX002 (ip), vehicle: saline",94 % of control
same,T/C,[10],118 % of control
same,T/C,[7],112 % of control
CC1=C[S+](c2ccccc2)c2cccc3cc4ccccc4c1c23 (stereo not given),T/C,"dose: 0.5 mg/kg/injection, schedule: Q07DX002 (ip), vehicle: saline with Tween-80",109 % of control
same,T/C,"dose: 1.0 mg/kg/injection, schedule: Q07DX002 (ip), vehicle: saline with Tween-80",162 % of control
same,T/C,"dose: 2.0 mg/kg/injection, schedule: Q07DX002 (ip), vehicle: saline with Tween-80",151 % of control
same,T/C,"dose: 4.0 mg/kg/injection, schedule: Q07DX002 (ip), vehicle: saline with Tween-80",114 % of control
CC(C)(O)/C=C/C(=O)[C@](C)(O)[C@H]1[C@H](O)C[C@@]2(C)[C@@H]3CC=C4[C@@H](C[C@H](O)C(=O)C4(C)C)[C@]3(C)C(=O)C[C@]12C,T/C,"dose: 0.25 mg/kg/injection, schedule: Q07DX002 (ip), vehicle: saline + Tween-80 + alcohol",95 % of control
same,T/C,"dose: 0.5 mg/kg/injection, schedule: Q07DX002 (ip), vehicle: saline + Tween-80 + alcohol",106 % of control
same,T/C,"dose: 1.0 mg/kg/injection, schedule: Q07DX002 (ip), vehicle: saline + Tween-80 + alcohol",65 % of control
Cc1c(N)nc(C(CC(N)=O)NCC(N)C(N)=O)nc1C(=O)NC(C(=O)NC(C)C(O)C(C)C(=O)NC(C(=O)NCCc1nc(-c2nc(C(=O)NCCCNC(C)c3ccccc3)cs2)cs1)C(C)O)C(OC1OC(CO)C(O)C(O)C1OC1OC(CO)C(O)C(OC(N)=O)C1O)c1cnc[nH]1 (stereo not given),T/C,"dose: 0.5 mg/kg/injection, schedule: Q07DX003 (ip), vehicle: saline",75 % of control
same,T/C,"dose: 1.0 mg/kg/injection, schedule: Q07DX002 (ip), vehicle: saline",66 % of control
same,T/C,"dose: 1.0 mg/kg/injection, schedule: Q07DX003 (ip), vehicle: saline",90 % of control
same,T/C,"dose: 2.0 mg/kg/injection, schedule: Q07DX002 (ip), vehicle: saline",75 % of control
same,T/C,"dose: 2.0 mg/kg/injection, schedule: Q07DX003 (ip), vehicle: saline",102 % of control
same,T/C,"dose: 4.0 mg/kg/injection, schedule: Q07DX003 (ip), vehicle: saline",62 % of control
same,T/C,"dose: 8.0 mg/kg/injection, schedule: Q07DX003 (ip), vehicle: saline",83 % of control
same,T/C,"dose: 16.0 mg/kg/injection, schedule: Q07DX003 (ip), vehicle: saline",92 % of control
same,T/C,"dose: 32.0 mg/kg/injection, schedule: Q07DX002 (ip), vehicle: saline",29 % of control
